According to patent US20230365553A1, “COMPOUNDS AND COMPOSITIONS FOR TREATING CONDITIONS ASSOCIATED WITH STING ACTIVITY” (IFM Due, Inc., priority 2020, published 2023):

Molecular target: T1, STING (Homo sapiens, UniProt Q86WV6, G230A/H232R/R293Q/R71H)
T1 construct: host or cells: THP1-Dual KO-IFNAR2 cells
Test: STING reporter assay: luciferase reporter activity in THP1-Dual KO-IFNAR2 cells stimulated with 2′3′cGAMP
Assay type: cell-based
Settings: 15 μM 2′3′cGAMP, 24h, read-out: hSTING EC50
Method: STING pathway activation by the compounds described herein was measured using THP 1-Dual™ cells (KO-IFNAR2).
THP1-Dual™ KO-IFNAR2 Cells (obtained from invivogen) were maintained in RPMI, 10% FCS, 5 ml P/S, 2 mM L-glut, 10 mM Hepes, and 1 mM sodium pyruvate. Compounds were spotted in empty 384 well tissue culture plates (Greiner 781182) by Echo for a final concentration of 0.0017-100 μM. Cells were plated into the TC plates at 40 μL per well, 2×10E6 cells/mL. For activation with STING ligand, 2′3′cGAMP (MW 718.38, obtained from Invivogen), was prepared in Optimem media.
The following solutions were prepared for each 1×384 plate: • Solution A: 2 mL Optimem with one of the following stimuli: • 60 μL of 10 mM 2′3′cGAMP→150 μM stock • Solution B: 2 mL Optimem with 60 μL Lipofectamine 2000→Incubate 5 min at RT
2 mL of solution A and 2 ml Solution B was mixed and incubated for 20 min at room temperature (RT). 20 μL of transfection solution (A+B) was added on top of the plated cells, with a final 2′3′cGAMP concentration of 15 μM. The plates were then centrifuged immediately at 340 g for 1 minute, after which they were incubated at 37° C., 5% CO2, >98% humidity for 24h. Luciferase reporter activity was then measured. EC50 values were calculated by using standard methods known in the art.
Luciferase reporter assay: 10 μL of supernatant from the assay was transferred to white 384-plate with flat bottom and squared wells. One pouch of QUANTI-Luc™ Plus was dissolved in 25 mL of water. 100 μL of QLC Stabilizer per 25 mL of QUANTI-Luc™ Plus solution was added. 50 μL of QUANTI-Luc™ Plus/QLC solution per well was then added. Luminescence was measured on a Platereader (e.g., Spectramax I3X (Molecular Devices GF3637001)).
Luciferase reporter activity was then measured. EC50 values were calculated by using standard methods known in the art.

T1 sequence (Q86WV6 whole entry R71H/G230A/H232R/R293Q): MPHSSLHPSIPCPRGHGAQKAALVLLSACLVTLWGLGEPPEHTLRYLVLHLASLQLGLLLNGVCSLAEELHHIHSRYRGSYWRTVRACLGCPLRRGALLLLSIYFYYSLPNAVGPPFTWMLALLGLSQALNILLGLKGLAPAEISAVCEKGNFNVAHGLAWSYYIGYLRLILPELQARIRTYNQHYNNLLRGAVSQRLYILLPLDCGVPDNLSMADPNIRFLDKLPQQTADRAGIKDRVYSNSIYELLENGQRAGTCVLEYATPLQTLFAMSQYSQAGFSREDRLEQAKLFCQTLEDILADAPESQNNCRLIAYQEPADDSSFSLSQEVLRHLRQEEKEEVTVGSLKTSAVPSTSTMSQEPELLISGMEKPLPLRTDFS

Row | Compound | EC50
1 | O=C(Nc1c[nH]c2ccc(-c3cnn(-c4ccc(C(F)(F)F)cc4)c3)cc12)C1CCC(CO)CC1 (stereo not shown) [Compound 188, 4-(hydroxymethyl)-N-(5-(1-(4-(trifluoromethyl)phenyl)-1H-pyrazol-4-yl)-1H-indol-3-yl)cyclohexane-1-carboxamide] | 1000 to 5000 nM
2 | CC(C)(N)CC(=O)Nc1c[nH]c2ccc(-c3cnn(-c4ccc(C(F)(F)F)cc4)c3)cc12 [Compound 189, 3-amino-3-methyl-N-(5-(1-(4-(trifluoromethyl)phenyl)-1H-pyrazol-4-yl)-1H-indol-3-yl)butanamide] | 5000 to 100000 nM
3 | O=C(Nc1c[nH]c2ccc(-c3cnn(Cc4ccc(C(F)(F)F)nc4)c3)cc12)C1CCC1 [Compound 191, N-(5-(1-((6-(trifluoromethyl)pyridin-3-yl)methyl)-1H-pyrazol-4-yl)-1H-indol-3-yl)cyclobutanecarboxamide] | 200 to 1000 nM
4 | C[C@@H](O)C(=O)Nc1c[nH]c2cc(F)c(-c3cnn(-c4ccc(C(F)(F)F)cc4)c3)cc12 [Compound 192, (R)-N-(6-fluoro-5-(1-(4-(trifluoromethyl)phenyl)-1H-pyrazol-4-yl)-1H-indol-3-yl)-2-hydroxypropanamide] | 200 to 1000 nM
5 | CC(NS(C)(=O)=O)C(=O)Nc1c[nH]c2cc(F)c(-c3cnn(-c4ccc(C(F)(F)F)cc4)c3)cc12 (stereo not shown) [Compound 193, N-(6-fluoro-5-(1-(4-(trifluoromethyl)phenyl)-1H-pyrazol-4-yl)-1H-indol-3-yl)-2-(methylsulfonamido)propanamide] | 1000 to 5000 nM
6 | O=C(CC(O)C(F)(F)F)Nc1c[nH]c2ccc(-c3cnn(-c4ccc(C(F)(F)F)cc4)c3)cc12 (stereo not shown) [Compound 195, 4,4,4-trifluoro-3-hydroxy-N-(5-(1-(4-(trifluoromethyl)phenyl)-1H-pyrazol-4-yl)-1H-indol-3-yl)butanamide] | 200 to 1000 nM
7 | O=C(Nc1c[nH]c2ccc(-c3cnn(-c4ccc(C(F)(F)F)cc4)c3)cc12)C(CO)C(F)(F)F (stereo not shown) [Compound 196, 3,3,3-trifluoro-2-(hydroxymethyl)-N-(5-(1-(4-(trifluoromethyl)phenyl)-1H-pyrazol-4-yl)-1H-indol-3-yl)propanamide] | 1000 to 5000 nM
8 | CCC(O)C(=O)Nc1c[nH]c2ccc(-c3cnn(-c4ccc(C(F)(F)F)cc4)c3)cc12 (stereo not shown) [Compound 197, 2-hydroxy-N-(5-(1-(4-(trifluoromethyl)phenyl)-1H-pyrazol-4-yl)-1H-indol-3-yl)butanamide] | 200 to 1000 nM

Now from value to molecule:

Row | EC50 | Compound
9 | 5000 to 100000 nM | NC1(C(=O)Nc2c[nH]c3ccc(-c4cnn(-c5ccc(C(F)(F)F)cc5)c4)cc23)CC(F)(F)C1 [Compound 185, 1-amino-3,3-difluoro-N-(5-(1-(4-(trifluoromethyl)phenyl)-1H-pyrazol-4-yl)-1H-indol-3-yl)cyclobutane-1-carboxamide]
10 | 200 to 1000 nM | O=C(Nc1c[nH]c2ccc(-c3cnn(-c4ccc(C(F)(F)F)cc4)c3)cc12)C1(O)CCCC1 [Compound 186, 1-hydroxy-N-(5-(1-(4-(trifluoromethyl)phenyl)-1H-pyrazol-4-yl)-1H-indol-3-yl)cyclopentane-1-carboxamide]
11 | 200 to 1000 nM | O=C(Nc1c[nH]c2ccc(-c3cnn(-c4ccc(C(F)(F)F)cc4)c3)cc12)C1(O)CCCCC1 [Compound 187, 1-hydroxy-N-(5-(1-(4-(trifluoromethyl)phenyl)-1H-pyrazol-4-yl)-1H-indol-3-yl)cyclohexane-1-carboxamide]
12 | 5000 to 100000 nM | O=C(Nc1c[nH]c2ccc(-c3cnn(-c4ccc(C(F)(F)F)cc4)c3)cc12)C1CC(F)C1 (stereo not shown) [Compound 190, 3-fluoro-N-(5-(1-(4-(trifluoromethyl)phenyl)-1H-pyrazol-4-yl)-1H-indol-3-yl)cyclobutane-1-carboxamide]
13 | 1000 to 5000 nM | O=C(Nc1c[nH]c2ccc(-c3cnn(-c4ccc(C(F)(F)F)cc4)c3)cc12)C1(O)COC1 [Compound 194, 3-hydroxy-N-(5-(1-(4-(trifluoromethyl)phenyl)-1H-pyrazol-4-yl)-1H-indol-3-yl)oxetane-3-carboxamide]
